“And” between values parts separate entries of the source, which are not always exact repeats. Equal values may be shown once.
Key:
[1] = Plasma concentration of WQ1001 (HM 910) and its metabolite CPT in rats after intravenous injection; format: in vivo; settings: for HM 910 Plasma / HM 910 Plasma (ng/mL): individual rats 1-6
Method: Intravenous administration in rats: six healthy SD rats, weighing 180˜220 g, three males and three females. Fasting for 12 h before dosing, free access to water. 20 mg/kg of HM 910 was administrated by intravenous bolus injection though caudal vein of the rats, with dose-volume volume of 1.0 mL/kg. Blooding 0.25 mL from the animal through the jugular vein, anti-clotting with heparin sodium, adding 0.2% formic acid within the anticoagulant. Blooding at following time points: 5 min, 15 min, 30 min, 45 min, 1 h, 1.5 h, 2 h, 2.5 h, 3 h, 4 h before and after administration. Blood samples were placed on ice after blooding and the plasma was centrifugal separated within 30 minutes (centrifugation conditions: 8000 r/min, 6 minutes, room temperature). The plasma collected was stored at −80° C. for analysis.

[2] = system: S1 and S1-M1-80 (characteristic expression of ABCG2/BCRP); test: Anti-drug resistance test (MTT, resistance index); format: cell-based; settings: S1-M1-80 (ABCG2/BCRP) versus S1 cells, 72 h, from IC50
Method: Logarithmic growth phase S1 and S1-M1-80 (characteristic expression of ABCG2/BCRP) were prepared as cell suspension of 2.5×10^4 cells/ml and 6×10^4 cells/ml, and were seeded in into 96-well plates with 0.19 ml/well. After incubating in cell incubator for 24 hours at 37° C., 5% CO2, sample solutions in various concentrations were added at 0.01 ml/well. Stroke-physiological saline solution is used as control well. Each treatment is conducted in 3 parallel wells. The drugs were added and incubated additional 72 h hours. And 5 mg/ml of MTT is added at 0.02 ml/well before four hours of the end the incubation. The culture liquid is removed at the end of incubation. Each well was added 0.1 ml of DMSO and OD values were measured at wavelength of 540 nm and reference wavelength of 655 nm. The experiment was repeated three times. Equation 1 is used to calculate cell growth inhibition rate (IR); and Equation 2 is used to calculate resistance index. Bliss method is used to calculate the 50% inhibitory concentration (IC50).

[3] = system: human multiple myeloma cells NCI-H929 xenografts; test: Tumor inhibitory effect on multiple myeloma cells NCI-H929 xenografts in nude mice; format: in vivo, BALB/c nude mouse; settings: for IR By RTV % / IR By TW % / RTV (X ± SD) / TW (X ± SD, g) / Bw (X ± SD, g) end / TV (X ± SD, mm^3) End / Bw (X ± SD, g) initial / TV (X ± SD, mm^3) initial: once every 4 days, intraperitoneal; for IR By RTV % / IR By TW % / RTV (X ± SD) / TW (X ± SD, g): 11th day; for Bw (X ± SD, g) end / TV (X ± SD, mm^3) End: end (11th day after inoculation)
Method: Multiple myeloma cells were routinely passaged in vitro, inoculated in 40 6-7-week-old BALB/c nude mouse, each mouse was subcutaneously injected human multiple myeloma cells NCI-H929 at its right axillary. Weighed after two days. The mice were randomly divided into five groups, eight in each group. Each group was dosed as follows: • i. physiological saline control group • ii. Topotecan positive control group, 2 mg/kg, once every 4 days, intraperitoneal injection • iii. WQ1001, high-dose group, 35 mg/kg, once every 4 days, intraperitoneal injection • iv. WQ1001, middle dose group, 25 mg/kg, once every 4 days, intraperitoneal injectionv. v. WQ1001, low dose group, 18 mg/kg, once every 4 days, intraperitoneal injection
Body weight(BW) as well as long diameter and short diameter of tumors were measured every two days. Tumor volume was calculated according to the Equation 1. On the 11th day after inoculation, the mice were weighed, long diameter and short diameter of tumors were measured, and relative tumor volume (RTV) was calculated according to Equation 2. Mice were sacrificed by cervical dislocation and the tumor mass was stripped and weighed. Inhibition rate (IR) was calculated according to the Equation 3. RTV and tumor weight (TW) for each group were analyzed through T-test.

[4] = Water-solubility test of compounds of Formula II and Formula IV; format: physicochemical; settings: the C-20 phosphite salt (Formula II) itself, read-out: Water-solubility of Comp of Formula II
[5] = SD rats, 20 mg/kg HM 910 i.v. bolus, 2.5 hr, 20 mg/kg

CC[C@@]1(O[PH](=O)[O-])C(=O)OCc2c1cc1n(c2=O)Cc2cc3ccccc3nc2-1.[Na+] [WQ1001]
HM 910 Plasma ([1]; SD rats, 20 mg/kg HM 910 i.v. bolus, 0.083 hr, 20 mg/kg): 56652 ng/mL and 31029 ng/mL and 37348 ng/mL and 56722 ng/mL and 45165 ng/mL and 21141 ng/mL
HM 910 Plasma ([1]; SD rats, 20 mg/kg HM 910 i.v. bolus, 0.25 hr, 20 mg/kg): 13690 ng/mL and 9484 ng/mL and 7271 ng/mL and 16294 ng/mL and 6761 ng/mL and 5639 ng/mL
HM 910 Plasma ([1]; SD rats, 20 mg/kg HM 910 i.v. bolus, 0.5 hr, 20 mg/kg): 2530 ng/mL and 1425 ng/mL and 1633 ng/mL and 4582 ng/mL and 1536 ng/mL and 1628 ng/mL
HM 910 Plasma ([1]; SD rats, 20 mg/kg HM 910 i.v. bolus, 0.75 hr, 20 mg/kg): 919 ng/mL and 574 ng/mL and 539 ng/mL and 1578 ng/mL and 617 ng/mL and 607 ng/mL
HM 910 Plasma ([1]; SD rats, 20 mg/kg HM 910 i.v. bolus, 1 hr, 20 mg/kg): 499 ng/mL and 259 ng/mL and 240 ng/mL (2×) and 668 ng/mL and 256 ng/mL
HM 910 Plasma ([1]; SD rats, 20 mg/kg HM 910 i.v. bolus, 1.5 hr, 20 mg/kg): 97.2 ng/mL and 78.0 ng/mL and 45.2 ng/mL and 162 ng/mL and 59.0 ng/mL and 96.4 ng/mL
HM 910 Plasma ([1]; SD rats, 20 mg/kg HM 910 i.v. bolus, 2 hr, 20 mg/kg): 18.3 ng/mL and 25.7 ng/mL and 51.5 ng/mL and 39.5 ng/mL and 20.8 ng/mL and 53.7 ng/mL
HM 910 Plasma [1, 5]: 28.2 ng/mL and 17.2 ng/mL and 18.4 ng/mL and 11.0 ng/mL
HM 910 Plasma (ng/mL) [1, 5]: BLQ
HM 910 Plasma (ng/mL) ([1]; SD rats, 20 mg/kg HM 910 i.v. bolus, 3 hr): BLQ
HM 910 Plasma (ng/mL) ([1]; SD rats, 20 mg/kg HM 910 i.v. bolus, 4 hr): BLQ
Fate of the tested drug after injection into the rats ([1]; SD rats, 20 mg/kg i.v. bolus): degraded and the releases camptothecin
concentration at 0.083 h ([1]; both sexes, Sprague-Dawley (SD), rat, plasma, iv, 20 mg/kg, 20 mg/kg HM 910 i.v. bolus, 0.083 hr, mean of rats): 41300 ng/mL
concentration at 0.25 h ([1]; both sexes, Sprague-Dawley (SD), rat, plasma, iv, 20 mg/kg, 20 mg/kg HM 910 i.v. bolus, 0.25 hr, mean of rats): 9860 ng/mL
concentration at 0.5 h ([1]; both sexes, Sprague-Dawley (SD), rat, plasma, iv, 20 mg/kg, 20 mg/kg HM 910 i.v. bolus, 0.5 hr, mean of rats): 2220 ng/mL
concentration at 0.75 h ([1]; both sexes, Sprague-Dawley (SD), rat, plasma, iv, 20 mg/kg, 20 mg/kg HM 910 i.v. bolus, 0.75 hr, mean of rats): 806 ng/mL
concentration at 1 h ([1]; both sexes, Sprague-Dawley (SD), rat, plasma, iv, 20 mg/kg, 20 mg/kg HM 910 i.v. bolus, 1 hr, mean of rats): 360 ng/mL
concentration at 1.5 h ([1]; both sexes, Sprague-Dawley (SD), rat, plasma, iv, 20 mg/kg, 20 mg/kg HM 910 i.v. bolus, 1.5 hr, mean of rats): 89.6 ng/mL
concentration at 2 h ([1]; both sexes, Sprague-Dawley (SD), rat, plasma, iv, 20 mg/kg, 20 mg/kg HM 910 i.v. bolus, 2 hr, mean of rats): 34.9 ng/mL
concentration at 2.5 h ([1]; both sexes, Sprague-Dawley (SD), rat, plasma, iv, 20 mg/kg, 20 mg/kg HM 910 i.v. bolus, 2.5 hr, mean of rats): 18.7 ng/mL
Resistance index [2]: 6
anti-tumor effect on NCI-H929 xenografts in nude mice (in words) ([3]; 25 mg/kg): significant anti-tumor effect
IR By RTV % ([3]; HM910 l-dose 18 mg/kg): 66.5%
IR By TW % ([3]; HM910 l-dose 18 mg/kg): 72.7%
RTV (X ± SD) ([3]; HM910 l-dose 18 mg/kg): 13.5 ± 11.0
TW (X ± SD, g) ([3]; HM910 l-dose 18 mg/kg): 0.41 ± 0.34 g
Bw (X ± SD, g) end ([3]; HM910 l-dose 18 mg/kg): 19.2 ± 0.9 g
TV (X ± SD, mm^3) End ([3]; HM910 l-dose 18 mg/kg): 653.0 ± 560.4 mm^3
Bw (X ± SD, g) initial ([3]; HM910 l-dose 18 mg/kg): 21.0 ± 1.6 g
TV (X ± SD, mm^3) initial ([3]; HM910 l-dose 18 mg/kg): 48.6 ± 4.9 mm^3
IR By RTV % ([3]; HM910 m-dose 25 mg/kg): 75.7%
IR By TW % ([3]; HM910 m-dose 25 mg/kg): 82.0%
RTV (X ± SD) ([3]; HM910 m-dose 25 mg/kg): 9.80 ± 11.6
TW (X ± SD, g) ([3]; HM910 m-dose 25 mg/kg): 0.27 ± 0.35 g
Bw (X ± SD, g) end ([3]; HM910 m-dose 25 mg/kg): 18.5 ± 0.7 g
TV (X ± SD, mm^3) End ([3]; HM910 m-dose 25 mg/kg): 480.1 ± 570.6 mm^3
Bw (X ± SD, g) initial ([3]; HM910 m-dose 25 mg/kg): 17.3 ± 0.7 g
TV (X ± SD, mm^3) initial ([3]; HM910 m-dose 25 mg/kg): 48.2 ± 7.8 mm^3
IR By RTV % ([3]; HM910 h-dose 35 mg/kg): 86.1%
IR By TW % ([3]; HM910 h-dose 35 mg/kg): 88.2%
RTV (X ± SD) ([3]; HM910 h-dose 35 mg/kg): 5.61 ± 9.74
TW (X ± SD, g) ([3]; HM910 h-dose 35 mg/kg): 0.18 ± 0.36 g
Bw (X ± SD, g) end ([3]; HM910 h-dose 35 mg/kg): 18.8 ± 0.6 g
TV (X ± SD, mm^3) End ([3]; HM910 h-dose 35 mg/kg): 272.3 ± 483.1 mm^3
Bw (X ± SD, g) initial ([3]; HM910 h-dose 35 mg/kg): 17.3 ± 0.7 g
TV (X ± SD, mm^3) initial ([3]; HM910 h-dose 35 mg/kg): 46.9 ± 8.8 mm^3
anti-tumor effect on NCI-H929 xenografts in nude mice (in words) ([3]; high dose, 35 mg/kg): significant anti-tumor effect
anti-tumor effect on NCI-H929 xenografts in nude mice (in words) ([3]; low-dose group, 18 mg/kg): significant anti-tumor effect
solubility [4]: > 10000 µg/mL

Reference: patent US20160375042A1, “USE OF CAMPTOTHECIN DERIVATIVE IN PREPARING PHARMACEUTICAL USED FOR TREATING MULTIPLE MYELOMA” (priority 2014, published 2016)
